Data: patent US9359392B2, “Dendrimer scaffolds for pharmaceutical use” (Victoria Link Limited, priority 2012, dated 2016)

What was measured:
[1] = comparator salt, stated without test; cited from earlier work
[2] = Water relaxivity measurements (T1, inversion recovery NMR); assay type: physicochemical; conditions: 500 MHz (11.75 T), 30° C., aqueous solution
Method: Water relaxivity measurements provide an indication of whether a material will increase contrast in MRI imaging techniques. Water relaxivity measurements were performed in aqueous solutions. T1 measurements were made on a 500 MHz (11.75 T) Bruker NMR using a standard inversion recovery sequence (180-t-90) at 30° C. The relaxivity of water in D2O in the presence of (meglumine)2[Gd(III)(DPTA)(OH2)]

[3] = test system: sheep spleen cells; test: Assessment of potential cytotoxicity: percentage cell viability versus a PBS control; assay type: cell-based; conditions: 36.5° C.
Method: The potential cytotoxic properties of compounds 12, 13 and 14 were evaluated by measuring percentage cell viability of sheep spleen cells versus a PBS control after 24 h and 48 h exposure to 0.01, 0.1 and 1 mg/mL solutions of each compound in PBS at 36.5° C.

[4] = Stability under forcing degradation conditions with HPLC monitoring; assay type: physicochemical
Source text: Assessment of Potential Cytotoxicity

relaxivity of water in D2O [2] [mM⁻¹ s⁻¹]	Compound	Cell viability ([3]; 0.01 mg/mL in PBS, 24 h) [%]	Cell viability ([3]; 0.01 mg/mL in PBS, 48 h) [%]	Cell viability ([3]; 0.1 mg/mL in PBS, 24 h) [%]	Cell viability ([3]; 0.1 mg/mL in PBS, 48 h) [%]	Cell viability ([3]; 1 mg/mL in PBS, 24 h) [%]	Cell viability ([3]; 1 mg/mL in PBS, 48 h) [%]	further results
	O=C([O-])CN(CCN(CC(=O)[O-])CC(=O)[O-])CCN(CC(=O)[O-])CC(=O)[O-].[Gd+3].[Na+].[Na+] [Gd-DPTA disodium salt]							water solubility [1]: sparingly water soluble
3.84	CNC[C@H](O)[C@@H](O)[C@H](O)[C@H](O)CO.CNC[C@H](O)[C@@H](O)[C@H](O)[C@H](O)CO.O=C([O-])CN(CCN(CC(=O)[O-])CC(=O)O)CCN(CC(=O)[O-])CC(=O)O.[Gd+3] [(meglumine)2[Gd(III)(DPTA)(OH2)], reference compound]							
	2-Aminoacetic acid(N,N):{6,9-diaza-3-oxa-7-oxononanyl(9,9)}2x,4x,8x^G1,G2,G3:(6-aza-3-oxa-7-oxooctanyl)16-cascadane [compound 14]	104	99	104	97	97	90	
1.20	Gadolinium complex of 2-aminoacetic acid(N,N):{6-aza-3-oxahexanyl(6,6)}2x^G1: (carboxymethyl)4-cascadane [34-Gd]							
	2-Aminoacetic acid(N,N):{6,9-diaza-3-oxa-7-oxononanyl(9,9)}2x,4x,8x^G1,G2,G3:(6-aza-3,11-dioxa-7,10-dioxoundecanyl)16-cascadane [compound 13]	107	97	104	98	106	100	degradation ([4]; 24 h in 1% H2O2 at 20° C.): 63%; degradation ([4]; 24 h in 1 M HCl at 20° C.): 12%; degradation ([4]; 24 h in 1 M NaOH at 20° C.): 30%; degradation ([4]; 24 h neat at 40° C.): No observable degradation; degradation ([4]; 24 h neat at 80° C.): 41%
	2-Aminoacetic acid(N,N):{6,9-diaza-3-oxa-7-oxononanyl(9,9)}2x,4x,8x^G1,G2,G36:(5-amino-3-oxapentanyl)16-cascadane [compound 12]	94	84	92	85	99	87	
